Experimental data published in PubChem BioAssay (NCI).
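Test compounds were applied to cells in 96-well plates for 48 hours at 5 doses. Here, GI50 denotes the concentration required for 50% inhibition of growth. The concentration for full growth arrest is given as TGI.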

Assays:
Assay in all cases: NCI anticancer screen, dose series, 48 h
786-0 renal = tested on: 786-0 renal
A498 renal = tested on: A498 renal
A549 NSCLC = tested on: A549 NSCLC
ACHN renal = tested on: ACHN renal
BT-549 breast = tested on: BT-549 breast
CAKI-1 renal = tested on: CAKI-1 renal
CCRF-CEM leukemia = tested on: CCRF-CEM leukemia
COLO 205 colon = tested on: COLO 205 colon
DU-145 prostate = tested on: DU-145 prostate
EKVX NSCLC = tested on: EKVX NSCLC
HCC-2998 colon = tested on: HCC-2998 colon
HCT-116 colon = tested on: HCT-116 colon
HCT-15 colon = tested on: HCT-15 colon
HL-60(TB) leukemia = tested on: HL-60(TB) leukemia
HOP-62 NSCLC = tested on: HOP-62 NSCLC
HOP-92 NSCLC = tested on: HOP-92 NSCLC
HT29 colon = tested on: HT29 colon
IGROV1 ovarian = tested on: IGROV1 ovarian
K-562 leukemia = tested on: K-562 leukemia
KM12 colon = tested on: KM12 colon
LOX IMVI melanoma = tested on: LOX IMVI melanoma
M14 melanoma = tested on: M14 melanoma
MALME-3M melanoma = tested on: MALME-3M melanoma
MCF7 breast = tested on: MCF7 breast
MDA-MB-231 breast = tested on: MDA-MB-231 breast
MDA-MB-435 = tested on: MDA-MB-435
MOLT-4 leukemia = tested on: MOLT-4 leukemia
NCI-H226 lung = tested on: NCI-H226 lung
NCI-H23 lung = tested on: NCI-H23 lung
NCI-H460 lung = tested on: NCI-H460 lung
NCI/ADR-RES ovarian = tested on: NCI/ADR-RES ovarian
OVCAR-3 ovarian = tested on: OVCAR-3 ovarian
OVCAR-4 ovarian = tested on: OVCAR-4 ovarian
OVCAR-5 ovarian = tested on: OVCAR-5 ovarian
OVCAR-8 ovarian = tested on: OVCAR-8 ovarian
PC-3 prostate = tested on: PC-3 prostate
RPMI-8226 leukemia = tested on: RPMI-8226 leukemia
RXF 393 renal = tested on: RXF 393 renal
SF-268 CNS = tested on: SF-268 CNS
SF-295 CNS = tested on: SF-295 CNS
SF-539 CNS = tested on: SF-539 CNS
SK-MEL-2 melanoma = tested on: SK-MEL-2 melanoma
SK-OV-3 ovarian = tested on: SK-OV-3 ovarian
SN12C renal = tested on: SN12C renal
SNB-19 CNS = tested on: SNB-19 CNS
SNB-75 CNS = tested on: SNB-75 CNS
SR leukemia = tested on: SR leukemia
SW-620 colon = tested on: SW-620 colon
T-47D breast = tested on: T-47D breast
TK-10 renal = tested on: TK-10 renal
U251 CNS = tested on: U251 CNS
UACC-257 melanoma = tested on: UACC-257 melanoma
UACC-62 melanoma = tested on: UACC-62 melanoma
UO-31 renal = tested on: UO-31 renal

## COc1ccc2c(c1)c(-c1nonc1-c1cn(C)c3ccccc13)cn2C
786-0 renal
  GI50: 628 nM
  TGI: > 100 µM
A498 renal
  GI50: 332 nM
  TGI: 988 nM
A549 NSCLC
  GI50: 629 nM
  TGI: > 100 µM
ACHN renal
  GI50: 621 nM
  TGI: > 100 µM
BT-549 breast
  GI50: 798 nM
  TGI: > 100 µM
CAKI-1 renal
  GI50: 382 nM
  TGI: > 100 µM
CCRF-CEM leukemia
  GI50: 374 nM
  TGI: > 100 µM
COLO 205 colon
  GI50: 479 nM
  TGI: > 100 µM
DU-145 prostate
  GI50: 528 nM
  TGI: > 100 µM
EKVX NSCLC
  GI50: 1110 nM
  TGI: > 100 µM
HCC-2998 colon
  GI50: 1110 nM
  TGI: > 100 µM
HCT-116 colon
  GI50: 441 nM
  TGI: > 100 µM
HCT-15 colon
  GI50: 456 nM
  TGI: > 100 µM
HL-60(TB) leukemia
  GI50: 340 nM
HOP-62 NSCLC
  GI50: 670 nM
  TGI: > 100 µM
HOP-92 NSCLC
  GI50: 890 nM
  TGI: > 100 µM
HT29 colon
  GI50: 357 nM
  TGI: > 100 µM
IGROV1 ovarian
  GI50: 577 nM
  TGI: > 100 µM
K-562 leukemia
  GI50: 300 nM
  TGI: > 100 µM
KM12 colon
  GI50: 414 nM
  TGI: > 100 µM
LOX IMVI melanoma
  GI50: 588 nM
  TGI: > 100 µM
M14 melanoma
  GI50: 373 nM
  TGI: > 100 µM
MALME-3M melanoma
  GI50: 675 nM
  TGI: > 100 µM
MCF7 breast
  GI50: 364 nM
  TGI: > 100 µM
MDA-MB-231 breast
  GI50: 877 nM
  TGI: > 100 µM
MDA-MB-435
  GI50: 169 nM
  TGI: 554 nM
MOLT-4 leukemia
  GI50: 668 nM
  TGI: > 100 µM
NCI-H226 lung
  GI50: 998 nM
  TGI: > 100 µM
NCI-H23 lung
  GI50: 996 nM
  TGI: > 100 µM
NCI-H460 lung
  GI50: 403 nM
  TGI: > 100 µM
NCI/ADR-RES ovarian
  GI50: 408 nM
  TGI: > 100 µM
OVCAR-3 ovarian
  GI50: 336 nM
  TGI: 8.75 µM
OVCAR-4 ovarian
  GI50: 1680 nM
  TGI: > 100 µM
OVCAR-5 ovarian
  GI50: 1250 nM
  TGI: > 100 µM
OVCAR-8 ovarian
  GI50: 570 nM
  TGI: > 100 µM
PC-3 prostate
  GI50: 481 nM
  TGI: > 100 µM
RPMI-8226 leukemia
  GI50: 634 nM
  TGI: > 100 µM
RXF 393 renal
  GI50: 270 nM
  TGI: 1030 nM
SF-268 CNS
  GI50: 1290 nM
  TGI: > 100 µM
SF-295 CNS
  GI50: 343 nM
  TGI: > 100 µM
SF-539 CNS
  GI50: 312 nM
  TGI: 1530 nM
SK-MEL-2 melanoma
  GI50: 554 nM
  TGI: > 100 µM
SK-OV-3 ovarian
  GI50: 536 nM
  TGI: > 100 µM
SN12C renal
  GI50: 697 nM
  TGI: > 100 µM
SNB-19 CNS
  GI50: 556 nM
  TGI: > 100 µM
SNB-75 CNS
  GI50: 198 nM
  TGI: 671 nM
SR leukemia
  GI50: 313 nM
  TGI: > 100 µM
SW-620 colon
  GI50: 367 nM
  TGI: > 100 µM
T-47D breast
  GI50: 542 nM
  TGI: > 100 µM
TK-10 renal
  GI50: 2260 nM
  TGI: > 100 µM
U251 CNS
  GI50: 440 nM
  TGI: > 100 µM
UACC-257 melanoma
  GI50: 463 nM
  TGI: > 100 µM
UACC-62 melanoma
  GI50: 493 nM
  TGI: > 100 µM
UO-31 renal
  GI50: 430 nM
  TGI: > 100 µM
